ChEMBL document CHEMBL4177619, “Novel potentially antifungal hybrids of 5-flucytosine and fluconazole: Design, synthesis and bioactive evaluation” (2017)
Values after ≈ are worked out from the molar mass of the structure shown. Active and inactive are the calls of the source. The rule behind the calls is not given here.

Experiments:
[1] = test system: Candida albicans; experiment: Antifungal activity against Candida albicans ATCC 90023 after 24 hrs by micro broth dilution method; assay type: functional; conditions: ATCC 90023, 24 h
[2] = test system: Candida parapsilosis; experiment: Antifungal activity against Candida parapsilosis ATCC 22019 after 24 hrs by micro broth dilution method; assay type: functional; conditions: Lodderomyces parapsilosis, ATCC 22019, 24 h
[3] = test system: Candida albicans; experiment: Antifungal activity against Candida albicans after 24 hrs by micro broth dilution method; assay type: functional
[4] = test system: Candida tropicalis; experiment: Antifungal activity against Candida tropicalis after 24 hrs by micro broth dilution method; assay type: functional
[5] = test system: Aspergillus fumigatus; experiment: Antifungal activity against Aspergillus fumigatus after 24 hrs by micro broth dilution method; assay type: functional
[6] = test system: Candida albicans; experiment: Induction of inner membrane permeabilization in Candida albicans assessed as propidium iodide uptake at 12 times MIC up to 105 mins by fluorescence assay; assay type: functional, organism-based
[7] = test system: Candida albicans; experiment: Fungicidal activity against Candida albicans assessed as log reduction in fungal load at 4 time MIC up to 1 hr by time kill assay; assay type: functional
[8] = test system: Calf thymus DNA; experiment: Binding affinity to calf thymus DNA assessed as increase in maximum absorption of DNA by UV-Visible spectrometric analysis; assay type: nucleic-acid assay; conditions: Bos taurus
[9] = test system: Calf thymus DNA; experiment: Binding affinity to calf thymus DNA assessed as hyperchromic effect up to 2 x 10^-5mol/L by UV-Visible spectrometric analysis; assay type: nucleic-acid assay; conditions: Bos taurus
[10] = test system: Calf thymus DNA; experiment: Inhibition of neutral red binding to calf thymus DNA by UV-Visible spectrometric analysis; assay type: nucleic-acid assay; conditions: Bos taurus
[11] = test system: Candida albicans; experiment: Potency index, ratio of fluconazole MIC80 to compound MIC80 for Candida albicans; assay type: functional
[12] = test system: Candida albicans; experiment: Potency index, ratio of 5-fluorocytosine MIC80 to compound MIC80 for Candida albicans; assay type: functional

## O=c1nc(N(Cc2ccc(Cl)c(Cl)c2)CC(O)(Cn2cncn2)c2ccc(F)cc2F)c(F)c[nH]1 (stereo not drawn)
[1]
  MIC80: 8 µM (≈ 4.2 µg/mL)
[2]
  MIC80: 30 µM (≈ 15.8 µg/mL)
[3]
  MIC80: 20 µM (≈ 10.5 µg/mL)
[4]
  MIC80: 30 µM (≈ 15.8 µg/mL)
[5]
  MIC80: 30 µM (≈ 15.8 µg/mL)
[6]
  Activity: Active
[7]
  Activity: >3 log10CFU/ml
[8]
  Activity: Dose-dependent effect
  K: 4.88 ×10³ L/mol
[9]
  Activity: Active
[10]
  inhibition: Dose-dependent effect
[11]
  Ratio: 8
[12]
  Ratio: 8

## O=c1nc(N(Cc2ccccc2F)CC(O)(Cn2cncn2)c2ccc(F)cc2F)c(F)c[nH]1 (stereo not drawn)
[1]
  MIC80: 530 µM (≈ 251 µg/mL)
[2]
  MIC80: 530 µM (≈ 251 µg/mL)
[3]
  MIC80: 260 µM (≈ 123 µg/mL)
[4]
  MIC80: 530 µM (≈ 251 µg/mL)
[5]
  MIC80: 530 µM (≈ 251 µg/mL)

## OC(Cn1cncn1)(Cn1cncn1)c1ccc(F)cc1F [FLUCONAZOLE]
[1]
  MIC80: 3 µM (≈ 0.919 µg/mL)
[2]
  MIC80: 6 µM (≈ 1.84 µg/mL)
[3]
  MIC80: 200 µM (≈ 61.3 µg/mL)
[4]
  MIC80: 830 µM (≈ 254 µg/mL)
[5]
  MIC80: 1650 µM (≈ 505 µg/mL)

## CCCCCCCCCCN(CC(O)(Cn1cncn1)c1ccc(F)cc1F)c1nc(=O)[nH]cc1F (stereo not drawn)
[1]
  MIC80: 2020 µM (≈ 1020 µg/mL)
[2]
  MIC80: 1010 µM (≈ 512 µg/mL)
[3]
  MIC80: 1010 µM (≈ 512 µg/mL)
[4]
  MIC80: 1010 µM (≈ 512 µg/mL)
[5]
  MIC80: 2020 µM (≈ 1020 µg/mL)

## O=c1nc(N(Cc2ccc(Cl)cc2Cl)CC(O)(Cn2cncn2)c2ccc(F)cc2F)c(F)c[nH]1 (stereo not drawn)
[1]
  MIC80: 120 µM (≈ 63 µg/mL)
[2]
  MIC80: 480 µM (≈ 252 µg/mL)
[3]
  MIC80: 240 µM (≈ 126 µg/mL)
[4]
  MIC80: 120 µM (≈ 63 µg/mL)
[5]
  MIC80: 240 µM (≈ 126 µg/mL)

## Nc1nc(=O)[nH]cc1F [FLUCYTOSINE]
[1]
  MIC80: 30 µM (≈ 3.87 µg/mL)
[2]
  MIC80: 990 µM (≈ 128 µg/mL)
[3]
  MIC80: 490 µM (≈ 63.3 µg/mL)
[4]
  MIC80: 1980 µM (≈ 256 µg/mL)
[5]
  MIC80: 1980 µM (≈ 256 µg/mL)

## CCCCCCCCCCCCN(CC(O)(Cn1cncn1)c1ccc(F)cc1F)c1nc(=O)[nH]cc1F (stereo not drawn)
[1]
  MIC80: 1910 µM (≈ 1020 µg/mL)
[2]
  MIC80: 950 µM (≈ 508 µg/mL)
[3]
  MIC80: 950 µM (≈ 508 µg/mL)
[4]
  MIC80: 950 µM (≈ 508 µg/mL)
[5]
  MIC80: 1910 µM (≈ 1020 µg/mL)

## CCCCCCCCN(CC(O)(Cn1cncn1)c1ccc(F)cc1F)c1nc(=O)[nH]cc1F (stereo not drawn)
[1]
  MIC80: 530 µM (≈ 254 µg/mL)
[2]
  MIC80: 530 µM (≈ 254 µg/mL)
[3]
  MIC80: 1060 µM (≈ 507 µg/mL)
[4]
  MIC80: 1060 µM (≈ 507 µg/mL)
[5]
  MIC80: 2130 µM (≈ 1020 µg/mL)

## C=CCN(CC(O)(Cn1cncn1)c1ccc(F)cc1F)c1nc(=O)[nH]cc1F (stereo not drawn)
[1]
  MIC80: 620 µM (≈ 252 µg/mL)
[2]
  MIC80: 1250 µM (≈ 508 µg/mL)
[3]
  MIC80: 310 µM (≈ 126 µg/mL)
[4]
  MIC80: 620 µM (≈ 252 µg/mL)
[5]
  MIC80: 620 µM (≈ 252 µg/mL)

## O=c1nc(N(Cc2cccc(Cl)c2)CC(O)(Cn2cncn2)c2ccc(F)cc2F)c(F)c[nH]1 (stereo not drawn)
[1]
  MIC80: 130 µM (≈ 63.8 µg/mL)
[2]
  MIC80: 260 µM (≈ 128 µg/mL)
[3]
  MIC80: 130 µM (≈ 63.8 µg/mL)
[4]
  MIC80: 520 µM (≈ 255 µg/mL)
[5]
  MIC80: 130 µM (≈ 63.8 µg/mL)

## CCCCCCCCCCCCCCCCN(CC(O)(Cn1cncn1)c1ccc(F)cc1F)c1nc(=O)[nH]cc1F (stereo not drawn)
[1]
  MIC80: 1730 µM (≈ 1020 µg/mL)
[2]
  MIC80: 860 µM (≈ 508 µg/mL)
[3]
  MIC80: 860 µM (≈ 508 µg/mL)
[4]
  MIC80: 860 µM (≈ 508 µg/mL)
[5]
  MIC80: 1770 µM (≈ 1050 µg/mL)

## O=c1nc(NCC(O)(Cn2cncn2)c2ccc(F)cc2F)c(F)c[nH]1 (stereo not drawn)
[1]
  MIC80: 170 µM (≈ 62.3 µg/mL)
[2]
  MIC80: 170 µM (≈ 62.3 µg/mL)
[3]
  MIC80: 170 µM (≈ 62.3 µg/mL)
[4]
  MIC80: 40 µM (≈ 14.7 µg/mL)
[5]
  MIC80: 80 µM (≈ 29.3 µg/mL)

## O=c1nc(N(Cc2ccccc2Cl)CC(O)(Cn2cncn2)c2ccc(F)cc2F)c(F)c[nH]1 (stereo not drawn)
[1]
  MIC80: 260 µM (≈ 128 µg/mL)
[2]
  MIC80: 520 µM (≈ 255 µg/mL)
[3]
  MIC80: 130 µM (≈ 63.8 µg/mL)
[4]
  MIC80: 260 µM (≈ 128 µg/mL)
[5]
  MIC80: 260 µM (≈ 128 µg/mL)

## CCCCCN(CC(O)(Cn1cncn1)c1ccc(F)cc1F)c1nc(=O)[nH]cc1F (stereo not drawn)
[1]
  MIC80: 580 µM (≈ 253 µg/mL)
[2]
  MIC80: 1170 µM (≈ 511 µg/mL)
[3]
  MIC80: 580 µM (≈ 253 µg/mL)
[4]
  MIC80: 290 µM (≈ 127 µg/mL)
[5]
  MIC80: 580 µM (≈ 253 µg/mL)

## CCCN(CC(O)(Cn1cncn1)c1ccc(F)cc1F)c1nc(=O)[nH]cc1F (stereo not drawn)
[1]
  MIC80: 310 µM (≈ 127 µg/mL)
[2]
  MIC80: 620 µM (≈ 253 µg/mL)
[3]
  MIC80: 310 µM (≈ 127 µg/mL)
[4]
  MIC80: 620 µM (≈ 253 µg/mL)
[5]
  MIC80: 620 µM (≈ 253 µg/mL)

## CCN(CC(O)(Cn1cncn1)c1ccc(F)cc1F)c1nc(=O)[nH]cc1F (stereo not drawn)
[1]
  MIC80: 320 µM (≈ 126 µg/mL)
[2]
  MIC80: 320 µM (≈ 126 µg/mL)
[3]
  MIC80: 160 µM (≈ 63.1 µg/mL)
[4]
  MIC80: 640 µM (≈ 252 µg/mL)
[5]
  MIC80: 640 µM (≈ 252 µg/mL)

## O=c1nc(N(Cc2ccc(Cl)cc2)CC(O)(Cn2cncn2)c2ccc(F)cc2F)c(F)c[nH]1 (stereo not drawn)
[1]
  MIC80: 130 µM (≈ 63.8 µg/mL)
[2]
  MIC80: 130 µM (≈ 63.8 µg/mL)
[3]
  MIC80: 130 µM (≈ 63.8 µg/mL)
[4]
  MIC80: 130 µM (≈ 63.8 µg/mL)
[5]
  MIC80: 130 µM (≈ 63.8 µg/mL)

## O=c1nc(N(Cc2ccc(F)cc2)CC(O)(Cn2cncn2)c2ccc(F)cc2F)c(F)c[nH]1 (stereo not drawn)
[1]
  MIC80: 530 µM (≈ 251 µg/mL)
[2]
  MIC80: 530 µM (≈ 251 µg/mL)
[3]
  MIC80: 260 µM (≈ 123 µg/mL)
[4]
  MIC80: 530 µM (≈ 251 µg/mL)
[5]
  MIC80: 260 µM (≈ 123 µg/mL)

## C#CCN(CC(O)(Cn1cncn1)c1ccc(F)cc1F)c1nc(=O)[nH]cc1F (stereo not drawn)
[1]
  MIC80: 1260 µM (≈ 509 µg/mL)
[2]
  MIC80: 1260 µM (≈ 509 µg/mL)
[3]
  MIC80: 310 µM (≈ 125 µg/mL)
[4]
  MIC80: 630 µM (≈ 255 µg/mL)
[5]
  MIC80: 630 µM (≈ 255 µg/mL)

## CCCCCCN(CC(O)(Cn1cncn1)c1ccc(F)cc1F)c1nc(=O)[nH]cc1F (stereo not drawn)
[1]
  MIC80: 560 µM (≈ 252 µg/mL)
[2]
  MIC80: 280 µM (≈ 126 µg/mL)
[3]
  MIC80: 560 µM (≈ 252 µg/mL)
[4]
  MIC80: 1130 µM (≈ 509 µg/mL)
[5]
  MIC80: 560 µM (≈ 252 µg/mL)

## O=c1nc(N(Cc2ccccc2)CC(O)(Cn2cncn2)c2ccc(F)cc2F)c(F)c[nH]1 (stereo not drawn)
[1]
  MIC80: 280 µM (≈ 128 µg/mL)
[2]
  MIC80: 280 µM (≈ 128 µg/mL)
[3]
  MIC80: 280 µM (≈ 128 µg/mL)
[4]
  MIC80: 280 µM (≈ 128 µg/mL)
[5]
  MIC80: 140 µM (≈ 63.9 µg/mL)

## CCCCN(CC(O)(Cn1cncn1)c1ccc(F)cc1F)c1nc(=O)[nH]cc1F (stereo not drawn)
[1]
  MIC80: 300 µM (≈ 127 µg/mL)
[2]
  MIC80: 300 µM (≈ 127 µg/mL)
[3]
  MIC80: 300 µM (≈ 127 µg/mL)
[4]
  MIC80: 600 µM (≈ 253 µg/mL)
[5]
  MIC80: 600 µM (≈ 253 µg/mL)
